Test system: mHypoE-N41 hypothalamic cells
Assay: Expression of appetite-promoting genes in hypothalamic cells
Assay type: cell-based
Conditions: 100 nM, 24 hours; vs PBS control
Description: Furthermore, to confirm the appetite-regulating effect of the functional peptide in mHypoE-N41 hypothalamic cells, the hypothalamic cells were treated with PBS (control) and 100 nM mouse-derived functional peptide (experimental group) for 24 hours.

Substance | decrease of Agrp gene level compared to the control | decrease of NPY gene level compared to the control
human-derived functional peptide: Human IF1-derived peptide, SEQ ID NO: 2: GSDQSENVDRGAGSIREAGGAFGKREQAEEERYFRAQSREQLAALKK (listed as Homo sapiens) | 47.5% | 59.6%
mouse-derived functional peptide: Mouse IF1-derived peptide, SEQ ID NO: 1: VSDSSDSMDTGAGSIREAGGAFGKREKAEEDRYFREKTKEQLAALRK (listed as Mus musculus) | 50.2% | 48.8%
